Assay results as given in article PMC11476552, “Synthesis and Preliminary Studies for In Vitro Biological Activity of Two New Water-Soluble Bis(thio)carbohydrazones and Their Copper(II) and Zinc(II) Complexes” (International Journal of Molecular Sciences, 2024).

Test: Cu(II) complex formation equilibria, spectrophotometric titration at pH 2.5
Assay type: physicochemical
Conditions: conditional formation constant, aqueous solution, pH = 2.5, T = 298.2 K
From the text: The copper(II) complexation equilibria of bis-TCH were studied by means of spectrophotometric titration of the ligand with Cu(II) in aqueous solution at pH = 2.5 and pH = 7.4. […] For this reason, in the speciation models, L identifies the ligand irrespective of its protonation state, and the charges of the complexes are omitted. […] The two bands at 237 and 318 nm, observed in the spectrum of the free ligand, decrease in absorbance upon addition of Cu(II), while the two bands at 259 and 400 nm increase.
A plot of absorbance at 280 nm vs. Cu(II)/ligand molar ratio (Figure 3, inset) quite clearly evidenced that two equivalence points are present: one at ca. 0.75 eq. and one at ca. 1.5 eq. of metal added, corresponding to the formation of [Cu3L4] and [Cu3L2] species. […] The [Cu3L4] species could have a simple structural explanation considering some peculiar characters of bis-TCH. This ligand, in fact, adds to the coordinating possibilities of the central skeleton (ONSNO) two sulfonic groups, which are deprotonated, such that they can also behave as counteranions. Moreover, both the ligands have a great affinity for Cu(II) ions, but bis-TCH is more acidic than bis-CH, and this implies that it more stably coordinates Cu(II) already at pH 2.5. It will be seen further in the discussion that in the case of bis-CH at pH = 2.5, the [CuL] species is identified, while, at the same pH, bis-TCH is able to compete more efficiently for the Cu(II) ions in solution, and the result is [Cu3L4], a species with a higher ligand/metal ratio (Figure S19).
The copper(II) complexation equilibria of bis-CH were studied by means of spectrophotometric titration at pH = 2.5 and 7.4. […] The best fit of the spectrophotometric data was obtained by considering the formation of [CuL] and [Cu2L] species, with log β values of 6.26(2) and 11.30(2), respectively (Table 2).
Samples used for the study of protonation equilibria of the ligands were prepared as follows. […] For each solution, the absorption spectrum was collected in the 220–600 nm range at 298.2 K. The spectral data collection was carried out immediately after the preparation of the samples and repeated after 3 and 10 min for all the samples at different pH values to check the stability of the ligand. […]
The logarithms of the apparent stability constants were calculated from the spectral dataset using HypSpec2014 software. […] All equilibria were studied at fixed pH, and therefore the determined log β values are logarithms of conditional formation constants. […] Speciation diagrams were calculated using the Hyss2009 software. […]

In the case of COc1cc(S(=O)(=O)[O-])cc(/C=N/NC(=O)N/N=C/c2cc(S(=O)(=O)[O-])cc(OC)c2O)c1O.[Na+].[Na+] [bis-CH, Bis-(sodium 3-methoxy-5-sulfonate-salicylaldehyde)-carbohydrazone], the “Log β([Cu2L])” value is reported as 11.30(2) and the “Log β([CuL])” value is reported as 6.26(2).
In the case of COc1cc(S(=O)(=O)[O-])cc(/C=N/NC(=S)N/N=C/c2cc(S(=O)(=O)[O-])cc(OC)c2O)c1O.[Na+].[Na+] [bis-TCH, Bis-(sodium 3-methoxy-5-sulfonate-salicylaldehyde)-thiocarbohydrazone], the “Log β([Cu3L2])” value is reported as 26.4(1) and the “Log β([Cu3L4])” value is reported as 38.6(1).
